One molecule from patent publication US20220000816A1, “COMPOSITION AND METHOD OF INHIBITING ACTIVITY OF MINERALOCORTICOID RECEPTOR BY APPLYING IT TO THE SKIN” (AMOREPACIFIC CORPORATION, priority 2018, published 2022) can be followed below.

For the assay, the system named is mineralocorticoid receptor. The assay is described as follows: MMTV-luciferase reporter assay of mineralocorticoid receptor activity in CV-1 cells stimulated with dexamethasone. The assay is classed as cell-based. The settings on record: 10 μg/ml compound, after 2 hours dexamethasone (1 nM), cultivated 24 hours, normalized to Renilla luciferase, FIG. 2. The protocol:
RNA was separated from a CV-1 cell and PCR was performed using reverse transcriptase, so gene expressions of a glucocorticoid receptor (GR) and a mineralocorticoid receptor (MR) were confirmed, and the results are shown in FIG. 1.
The CV-1 cell was cultivated in a 24-well flat incubator. After 24 hours, the incubating medium was replaced with a 10% charcoal dextran-treated FBS-DMEM, and then after 4 hours, mixed DNA of a MMTV-luciferase reporter plasmid and an internal control group of a pRL-SV-40 plasmid was transfected using TransFast reagent (Promega). After 24 hours, it was treated with 10 μg/ml of the compound (Ramidus AB) represented by Chemical Formula 1-1, and after 2 hours, was treated with dexamethasone (1 nM), and then cultivated for 24 hours. The luciferase activity in the cell lysate was measured using a Dual-Luciferase Reporter Assay System (Promega), and the transfection efficiency was normalized by revising Renilla luciferase activity to measure a relative luciferase activity, and the results are shown in FIG. 2.
(In a reporter assay the amount or activity of a reporter protein is the signal.)

For `CC(C)c1ccc2c(c1)CC[C@H]1[C@@H](C)C(C(=O)O)CC[C@]21C` (stereo partly shown) [Chemical Formula 1-1], the “relative luciferase activity (activity of the mineralocorticoid receptor by dexamethasone)” value was “deteriorated activity of the mineralocorticoid receptor”.
